Our source for the inhibition values is patent publication US20230011571A1, “SMALL MOLECULE FURIN INHIBITORS FOR TREATING INFECTIOUS DISEASES” (BP Asset V, Inc., priority 2019, published 2023).

Holding throughout (format): cell-based
For experiment [1], the system named is Chikungunya virus (CHIKV). Nature of the experiment: microbe, parasite or virus in culture. Conditions: Chikungunya virus, Vero, 48 h, read-out: Percent viral inhibition CHKV.
In a further experiment the test system is dengue virus (DENV). Nature of the experiment: microbe, parasite or virus in culture. Conditions: Dengue virus, Vero, 120 h, read-out: Percent viral inhibition DENY.
Another experiment has as its system Marburg virus (MARV). Nature of the experiment: organism not typed. Conditions: Vero, 72 h, read-out: Percent viral inhibition MARV.

Regarding `O=S(=O)(O)CC1CCN(Cc2cc(Oc3ccc(N4CCNCC4)nc3)nc(-c3cc(Cl)cc(Cl)c3)c2)CC1` [Example 8, (1-((2-(3,5-dichlorophenyl)-6-((6-(piperazin-1-yl)pyridin-3-yl)oxy)pyridin-4-yl)methyl)piperidin-4-yl)methanesulfonic acid], the inhibition at 1 µM in experiment [1] was 1.77%; in the experiment on dengue virus (DENV), 14.7%; with Marburg virus (MARV), 10.9%.

For the compound `CN1CCN(c2ncc(Oc3cc(CN4CCC(CP(C)(C)=O)CC4)cc(-c4cc(Cl)cc(Cl)c4)n3)cn2)CC1` [Example 320, ((1-((2-(3,5-dichlorophenyl)-6-((2-(4-methylpiperazin-1-yl)pyrimidin-5-yl)oxy)pyridin-4-yl)methyl)piperidin-4-yl)methyl)dimethylphosphineoxide], the inhibition at 1 µM in experiment [1] was 17.5%; with dengue virus (DENV), 15.3%; in the experiment with Marburg virus (MARV), 52.5%.

On to `CCN1CCCN(c2ccc(Oc3cc(CN4CCC(CC(=O)O)CC4)cc(-c4cc(Cl)cc(Cl)c4)n3)nn2)CC1` [Example 355, 2-(1-((2-(3,5-dichlorophenyl)-6-((6-(4-ethyl-1,4-diazepan-1-yl)pyridazin-3-yl)oxy)pyridin-4-yl)methyl)piperidin-4-yl)acetic acid], for which the inhibition at 1 µM in experiment [1] stood at 22%; in the experiment with dengue virus (DENV), 30.2%; in the experiment with Marburg virus (MARV) it was 52.4%.

With `CC(=O)NCC1CCN(Cc2cc(Oc3cnc(N4CCCNCC4)nc3)nc(-c3cc(Cl)cc(Cl)c3)c2)CC1` [Example 118, N-((1-((2-((2-(1,4-diazepan-1-yl)pyrimidin-5-yl)oxy)-6-(3,5-dichlorophenyl)pyridin-4-yl)methyl)piperidin-4-yl)methyl)acetamide], the figures for the inhibition at 1 µM (in experiment [1]; in the experiment on dengue virus (DENV); in the experiment on Marburg virus (MARV)) were 0%, 15.6% and 0%, respectively.

With `CN1CCN(c2ccc(Oc3cc(CN4CCC5(CC4)CNC(=O)OC5)cc(-c4cc(Cl)cc(Cl)c4)n3)cn2)CC1` [Example 141, 9-((2-(3,5-dichlorophenyl)-6-((6-(4-methylpiperazin-1-yl)pyridin-3-yl)oxy)pyridin-4-yl)methyl)-2-oxa-4,9-diazaspiro[5.5]undecan-3-one], the inhibition at 1 µM in experiment [1] amounted to 20.9%; in the experiment with dengue virus (DENV), 27.7%; in the experiment on Marburg virus (MARV), 66.6%.

`O=C(O)C1[C@H]2CCN(Cc3cc(Oc4cnc(N5CCN6CCC5C6)nc4)nc(-c4cc(Cl)cc(Cl)c4)c3)CC[C@@H]12` (stereo partly drawn) [Example 337, (1R,7S,8r)-4-((2-((2-(1,4-diazabicyclo[3.2.1]octan-4-yl)pyrimidin-5-yl)oxy)-6-(3,5-dichlorophenyl)pyridin-4-yl)methyl)-4-azabicyclo[5.1.0] octane-8-carboxylic acid]: the inhibition at 1 µM in experiment [1] turned out to be 15.9%; in the experiment with dengue virus (DENV), 0%; in the experiment with Marburg virus (MARV) it was 37.6%.

Regarding `O=C(O)CCC1CCN(Cc2cc(Oc3cnc(N4CCN(CCO)CC4)nc3)cc(-c3cc(Cl)cc(Cl)c3)c2)CC1` [Example 114, 3-(1-((3′,5′-dichloro-5-((2-(4-(2-hydroxyethyl)piperazin-1-yl)pyrimidin-5-yl)oxy)-[1,1′-biphenyl]-3-yl)methyl)piperidin-4-yl)propanoic acid], the inhibition at 1 µM in experiment [1] stood at 26.6%; in the experiment with dengue virus (DENV), 38.1%; in the experiment on Marburg virus (MARV), 74.2%.

Consider `CC(=O)N[C@H]1[C@@H]2CCN(Cc3cc(Oc4cnc(N5CCN(CCC(=O)O)CC5)nc4)nc(-c4cc(Cl)cc(Cl)c4)c3)CC[C@@H]21` [Example 367, 3-(4-(5-((4-(((1R,7S,8r)-8-acetamido-4-azabicyclo[5.1.0]octan-4-yl)methyl)-6-(3,5-dichlorophenyl)pyridin-2-yl)oxy)pyrimidin-2-yl)piperazin-1-yl)propanoic acid], for which the values for the inhibition at 1 µM (in experiment [1]; with dengue virus (DENV); in the experiment on Marburg virus (MARV)) were 27.4%, 15% and 54.7%, respectively.

As to `CC(CCN1CCN(c2ncc(Oc3cc(CN4CC[C@@H]5[C@H](CC4)[C@H]5NS(C)(=O)=O)cc(-c4cc(Cl)cc(Cl)c4)n3)cn2)CC1)C(=O)O` (stereo partly drawn) [Example 81, 4-(4-(5-((6-(3,5-dichlorophenyl)-4-(((1R,7S,8r)-8-(methylsulfonamido)-4-azabicyclo[5.1.0]octan-4-yl)methyl)pyridin-2-yl)oxy)pyrimidin-2-yl)piperazin-1-yl)-2-methylbutanoic acid], the inhibition at 1 µM worked out at 26.1% in experiment [1], 50.5% with dengue virus (DENV) and 73.7% in the experiment with Marburg virus (MARV).

For `O=C(O)CC1CCN(Cc2cc(Oc3cnc(N4CCN(C5CC5)CC4)nc3)nc(-c3cc(Cl)cc(Cl)c3)c2)CC1` [Example 233, 2-(1-((2-((2-(4-cyclopropylpiperazin-1-yl)pyrimidin-5-yl)oxy)-6-(3,5-dichlorophenyl)pyridin-4-yl)methyl)piperidin-4-yl)acetic acid], the inhibition at 1 µM in experiment [1] was determined as 16.3%; in the experiment on dengue virus (DENV) it was 55.7%; in the experiment with Marburg virus (MARV), 57.1%.

As for `CN1CCN(c2ncc(Oc3cc(CN4CCC(CC(=O)O)CC4)cc(-c4cc(Cl)cc(Cl)c4)n3)cn2)CC(C)(O)C1` (stereo not drawn) [Example 146, 2-(1-((2-(3,5-dichlorophenyl)-6-((2-(6-hydroxy-4,6-dimethyl-1,4-diazepan-1-yl)pyrimidin-5-yl)oxy)pyridin-4-yl)methyl)piperidin-4-yl)acetic acid], the inhibition at 1 µM in experiment [1] stood at 23.1%; in the experiment on dengue virus (DENV), 41.8%; with Marburg virus (MARV), 66.2%.

Regarding `CC(=O)NCC1CCN(Cc2cc(Oc3cnc(N4CCN(CCC(C)(C)C(=O)O)CC4)nc3)nc(-c3cc(Cl)cc(Cl)c3)c2)CC1` [Example 370, 4-(4-(5-((4-((4-(acetamidomethyl)piperidin-1-yl)methyl)-6-(3,5-dichlorophenyl)pyridin-2-yl)oxy)pyrimidin-2-yl)piperazin-1-yl)-2,2-dimethylbutanoic acid], the inhibition at 1 µM in experiment [1] amounted to 24.6%; in the experiment on dengue virus (DENV), 41.7%; with Marburg virus (MARV), 57%.

On to `CN1CCCN(c2ncc(Oc3cc(CN4CCC(CC(=O)O)CC4)cc(-c4cc(Cl)cc(Cl)c4)n3)cn2)CC1` [Example 126, 2-(1-((2-(3,5-dichlorophenyl)-6-((2-(4-methyl-1,4-diazepan-1-yl)pyrimidin-5-yl)oxy)pyridin-4-yl)methyl)piperidin-4-yl)acetic acid], for which the inhibition at 1 µM in experiment [1] is 23.6%; in the experiment on dengue virus (DENV), 8.34%; in the experiment with Marburg virus (MARV), 38.5%.

On to `CC(=O)NCC1CCN(Cc2cc(Oc3cnc(N4CCN(CCS(C)(=O)=O)CC4)nc3)cc(-c3cc(Cl)cc(Cl)c3)c2)CC1` [Example 167, N-((1-((3′,5′-dichloro-5-((2-(4-(2-(methylsulfonyl)ethyl)piperazin-1-yl)pyrimidin-5-yl)oxy)-[1,1′-biphenyl]-3-yl)methyl)piperidin-4-yl)methyl)acetamide], for which the inhibition at 1 µM in experiment [1] was found to be 0%; in the experiment on dengue virus (DENV), 41.3%; in the experiment with Marburg virus (MARV), 0%.

For `O=C(O)CC1CCN(Cc2cc(Oc3cnc(N4CCNCC4)nc3)nc(-c3cc(Cl)cc(Cl)c3)c2)CC1` [Example 206, 2-(1-((2-(3,5-dichlorophenyl)-6-((2-(piperazin-1-yl)pyrimidin-5-yl)oxy)pyridin-4-yl)methyl)piperidin-4-yl)acetic acid], the results for the inhibition at 1 µM (in experiment [1]; with dengue virus (DENV); in the experiment with Marburg virus (MARV)) were 34.4%, 29.3% and 50.8%, respectively.

On to `CN1CCN(c2ncc(Oc3cc(CN4CCC(CC(=O)O)CC4)cc(-c4cc(Cl)cc(Cl)c4)n3)cn2)CC(O)C1` (stereo not drawn) [Example 226, 2-(1-((2-(3,5-dichlorophenyl)-6-((2-(6-hydroxy-4-methyl-1,4-diazepan-1-yl)pyrimidin-5-yl)oxy)pyridin-4-yl)methyl)piperidin-4-yl)acetic acid], for which the inhibition at 1 µM in experiment [1] is 26.7%; in the experiment on dengue virus (DENV), 58.9%; in the experiment on Marburg virus (MARV), 41.4%.

On to `O=C(O)CC1CCN(Cc2cc(Oc3cnc(N4CCNCC(O)C4)nc3)nc(-c3cc(Cl)cc(Cl)c3)c2)CC1` (stereo not drawn) [Example 123, 2-(1-((2-(3,5-dichlorophenyl)-6-((2-(6-hydroxy-1,4-diazepan-1-yl)pyrimidin-5-yl)oxy)pyridin-4-yl)methyl)piperidin-4-yl)acetic acid], for which the values for the inhibition at 1 µM (in experiment [1]; in the experiment with dengue virus (DENV); in the experiment with Marburg virus (MARV)) were 19.2%, 39.9% and 50.6%, respectively.

As to `CC(=O)NCC1CCN(Cc2cc(Oc3cnc(N4CCN(C(C)CCS(C)(=O)=O)CC4)nc3)nc(-c3cc(Cl)cc(Cl)c3)c2)CC1` (stereo not drawn) [Example 19, N-((1-((2-(3,5-dichlorophenyl)-6-((2-(4-(4-(methylsulfonyl)butan-2-yl)piperazin-1-yl)pyrimidin-5-yl)oxy)pyridin-4-yl)methyl)piperidin-4-yl)methyl)acetamide], the inhibition at 1 µM is 21.6% in experiment [1], 35.5% with dengue virus (DENV) and 79.8% in the experiment with Marburg virus (MARV).

Turning to `CC(=O)NCC1CCN(Cc2cc(Oc3ccc(N4CCN(CCP(=O)(O)O)CC4)nc3)nc(-c3cc(Cl)cc(Cl)c3)c2)CC1` [Example 30, (2-(4-(5-((4-((4-(acetamidomethyl)piperidin-1-yl)methyl)-6-(3,5-dichlorophenyl)pyridin-2-yl)oxy)pyridin-2-yl)piperazin-1-yl)ethyl)phosphonic acid], the inhibition at 1 µM in experiment [1] worked out at 10.1%; in the experiment on dengue virus (DENV), 44.3%; in the experiment on Marburg virus (MARV), 15.5%.

Turning to `COCCN1CCN(c2ccc(Oc3cc(CN4CCC(CC(=O)O)CC4)cc(-c4cc(Cl)cc(Cl)c4)n3)cn2)CC1` [Example 244, 2-(1-((2-(3,5-dichlorophenyl)-6-((6-(4-(2-methoxyethyl)piperazin-1-yl)pyridin-3-yl)oxy)pyridin-4-yl)methyl)piperidin-4-yl)acetic acid], the inhibition at 1 µM was found to be 6.34% in experiment [1], 14% with dengue virus (DENV) and 61.4% in the experiment on Marburg virus (MARV).

As usually defined, the inhibition is how much of the control response was suppressed.
